Source: ChEMBL document CHEMBL3045917, “Insecticidal cyclodepsipeptides from Beauveria felina” (2011)
In brackets after ≈: the same amount, converted by molar mass. Where a SMILES comes first, the peptide text is derived from it. [ ]: non-standard residue; d: D form. ξ: configuration not given here. ξLac(3-iPr) = CC(C)CC(O)C(=O)O; NMeV = CN[C@H](C(=O)O)C(C)C; βAla = NCCC(=O)O

Legend:
Sitophilus = assay: Insecticidal activity against Sitophilus spp. assessed as mortality after 5 days; type: functional; conditions: 120 h, read-out: LD50 (the source's name)
Callosobruchus maculatus = assay: Insecticidal activity against Callosobruchus maculatus assessed as mortality after 5 days; type: functional; conditions: 120 h, read-out: LD50 (the source's name)

| SMILES | LC50 (Sitophilus) | LC50 (Callosobruchus maculatus) |
| --- | --- | --- |
| CC(C)CC1OC(=O)CCNC(=O)[C@H](C(C)C)N(C)C(=O)[C@H](C(C)C)N(C)C(=O)[C@H](Cc2ccccc2)NC(=O)[C@@H]2CCCN2C1=O (stereo partly drawn) [ISARIDIN E] (cyclo(F[NMeV][NMeV][βAla][ξLac(3-iPr)]P)) | 300 µg/mL (≈ 457 µM) | 220 µg/mL (≈ 335 µM) |
| CCCCC(C)C1CC(=O)NCC(=O)N[C@@H](C(C)C)C(=O)N[C@H](CC(C)C)C(=O)N[C@@H](C)C(=O)N[C@H](C(C)C)C(=O)O1 (stereo partly drawn) [ISO-ISARIIN B] | 10 µg/mL (≈ 16.8 µM) | – |
